Data: article PMC11483378, “Triazole-Based Thiamine Analogues as Inhibitors of Thiamine Pyrophosphate-Dependent Enzymes: 1,3-Dicarboxylate for Metal Binding” (ACS Omega, 2024)
Like-named read-outs stand apart in the source and are kept apart here.

Legend:
A. viridans PO = A. viridans PO (Aerococcus viridans, UniProt A9X9K8); assay: A. viridans PO inhibitory activity assay (quinoneimine dye); type: biochemical
Description: A. viridans PO and horseradish peroxidase were purchased from Sigma. A. viridans PO activity was determined by monitoring appearance of quinoneimine dye at 550 nm using a microplate reader (CLARIOstar) and conducted as described[5] with some modifications. […] The reaction buffer (50 mM KH2PO4 and 10 mM MgCl2, pH 5.9) contained TPP at specified concentrations, 10 μM flavin adenine dinucleotide, 0.15% 4-aminoantipyrine, 0.3% N-ethyl-N-(2-hydroxy-3-sulfopropyl)-m-toluidine (EHSPT), 50 μg/mL horseradish peroxidase, and 0.35 U/mL A. viridans PO. The reaction mixture was preincubated at 37 °C with inhibitor for 30 min, and then the reaction was initiated by adding pyruvate to a final concentration of 50 mM. To determine the IC50, TPP concentration was set at 60 μM with varying inhibitor concentrations. One unit of PO activity is defined as the production of 1 μmol of hydrogen peroxide per minute. The IC50 values were calculated from nonlinear regression curve fitting using GraphPad Prism.
(§1) Enzyme inhibitory activity assays – methods and results (Figures S1-4) […]
(§2) The compound […]
A. viridans PO inhibitory activity assay. A. viridans PO and horseradish peroxidase were purchased from Sigma. A. viridans PO activity was determined by monitoring appearance of quinoneimine dye at 550 nm using a microplate reader (CLARIOstar) and conducted as described3 with some modifications. […]
buffer (50 mM KH2PO4 and 10 mM MgCl2, pH 5.9) contained TPP at specified concentrations, 10 µM flavin adenine dinucleotide (FAD), 0.15% 4-aminoantipyrine, 0.3% N-ethyl-N-(2-hydroxy-3-sulfopropyl)-m-toluidine (EHSPT), 50 µg/mL horseradish peroxidase and 0.35 U/mL A. viridans PO. The reaction mixture was preincubated at 37 °C with inhibitor for 30 min, then reaction was initiated by adding pyruvate to a final concentration of 50 mM. To determine the IC50, TPP concentration was set was set at 60 µM with varying inhibitor concentrations. One unit of PO activity is defined as the production of 1 μmol of hydrogen peroxide per minute. The IC 50 values were calculated from non-linear regression curve fitting using GraphPad Prism. […]

E. coli OGDH E1 = E. coli OGDH E1 (Escherichia coli, UniProt P0AFG3); assay: E. coli OGDH E1 inhibitory activity assay (DCPIP reduction); type: biochemical
Description: E. coli OGDH E1 was from material donated by R. Frank. E. coli OGDH E1 activity was determined by monitoring DCPIP reduction at 600 nm using a microplate reader (CLARIOstar) and conducted as described[5] with some modifications. […] The reaction buffer (50 mM KH2PO4 and 2 mM MgCl2, pH 7) contained TPP at specified concentrations, 0.5 mM DCPIP, and 6.7 mg/mL E. coli OGDH E1. The reaction mixture was preincubated at 37 °C with the inhibitor for 60 min, and then the reaction was initiated by adding α-ketoglutarate to a final concentration of 10 mM. To determine the IC50, the TPP concentration was set at 60 μM with varying inhibitor concentrations. Specific activity was calculated using the molar extinction coefficient of DCPIP, 21 mM^–1 cm^–1.[28] The IC50 values were calculated from nonlinear regression curve fitting using GraphPad Prism.
as §1, §2
E. coli OGDH E1 inhibitory activity assay. E. coli OGDH E1 was from material donated by R. Frank. E. coli OGDH E1 activity was determined by monitoring DCPIP reduction at 600 nm using a microplate reader (CLARIOstar) and conducted as described3 with some modifications. The percentage inhibition of compounds against E. coli OGDH E1 was assayed at 250 μM. The reaction buffer (50 mM KH 2PO4 and 2 mM MgCl2, pH 7) contained TPP at specified concentrations, 0.5 mM DCPIP, and 6.7 mg/ml E. coli OGDH E1. The reaction mixture was preincubated at 37 °C with the inhibitor for 60 min, then reaction was initiated by adding α-ketoglutarate to a final concentration of 10 mM. To determine the IC50, TPP concentration was set at 60 µM with varying inhibitor concentrations. Specific activity was […]

[1] = [Compound] = 250 μM, [TPP] = 50 μM
[2] = [Compound] = [TPP] = 250 μM; read-out: % Inhibition (1:1)
[3] = [TPP] = 60 µM; read-out: IC50 (μM ± SEM)
[4] = calculated from KM(TPP) 5 µM using [TPP]/IC50 = KM(TPP)/KI; read-out: KI
[5] = calculated from KM(TPP) 3 µM using [TPP]/IC50 = KM(TPP)/KI; read-out: KI
[6] = calculated from KM(TPP) 5 µM using [TPP]/IC50 = KM(TPP)/KI
[7] = read-out: IC50 (μM ± SEM); [TPP] = 60 µM
[8] = calculated from KM(TPP) 3 µM using [TPP]/IC50 = KM(TPP)/KI

A. viridans PO, sequence (A9X9K8 entry or part of it): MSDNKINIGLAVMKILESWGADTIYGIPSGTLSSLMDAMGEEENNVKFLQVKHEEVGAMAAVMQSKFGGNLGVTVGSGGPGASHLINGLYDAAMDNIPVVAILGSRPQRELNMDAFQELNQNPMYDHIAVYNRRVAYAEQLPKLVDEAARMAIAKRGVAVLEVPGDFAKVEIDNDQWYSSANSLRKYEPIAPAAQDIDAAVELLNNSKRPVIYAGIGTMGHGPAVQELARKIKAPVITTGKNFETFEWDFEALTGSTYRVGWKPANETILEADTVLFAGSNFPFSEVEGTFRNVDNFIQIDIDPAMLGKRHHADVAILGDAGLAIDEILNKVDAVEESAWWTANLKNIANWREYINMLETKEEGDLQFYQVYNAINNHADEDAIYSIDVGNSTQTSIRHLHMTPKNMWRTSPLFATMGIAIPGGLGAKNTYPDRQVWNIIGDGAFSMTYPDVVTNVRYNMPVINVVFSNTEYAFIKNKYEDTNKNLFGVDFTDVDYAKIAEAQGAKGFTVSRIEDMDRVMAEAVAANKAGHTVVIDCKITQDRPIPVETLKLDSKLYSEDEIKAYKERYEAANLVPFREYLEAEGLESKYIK
E. coli OGDH E1, sequence (P0AFG3 whole entry): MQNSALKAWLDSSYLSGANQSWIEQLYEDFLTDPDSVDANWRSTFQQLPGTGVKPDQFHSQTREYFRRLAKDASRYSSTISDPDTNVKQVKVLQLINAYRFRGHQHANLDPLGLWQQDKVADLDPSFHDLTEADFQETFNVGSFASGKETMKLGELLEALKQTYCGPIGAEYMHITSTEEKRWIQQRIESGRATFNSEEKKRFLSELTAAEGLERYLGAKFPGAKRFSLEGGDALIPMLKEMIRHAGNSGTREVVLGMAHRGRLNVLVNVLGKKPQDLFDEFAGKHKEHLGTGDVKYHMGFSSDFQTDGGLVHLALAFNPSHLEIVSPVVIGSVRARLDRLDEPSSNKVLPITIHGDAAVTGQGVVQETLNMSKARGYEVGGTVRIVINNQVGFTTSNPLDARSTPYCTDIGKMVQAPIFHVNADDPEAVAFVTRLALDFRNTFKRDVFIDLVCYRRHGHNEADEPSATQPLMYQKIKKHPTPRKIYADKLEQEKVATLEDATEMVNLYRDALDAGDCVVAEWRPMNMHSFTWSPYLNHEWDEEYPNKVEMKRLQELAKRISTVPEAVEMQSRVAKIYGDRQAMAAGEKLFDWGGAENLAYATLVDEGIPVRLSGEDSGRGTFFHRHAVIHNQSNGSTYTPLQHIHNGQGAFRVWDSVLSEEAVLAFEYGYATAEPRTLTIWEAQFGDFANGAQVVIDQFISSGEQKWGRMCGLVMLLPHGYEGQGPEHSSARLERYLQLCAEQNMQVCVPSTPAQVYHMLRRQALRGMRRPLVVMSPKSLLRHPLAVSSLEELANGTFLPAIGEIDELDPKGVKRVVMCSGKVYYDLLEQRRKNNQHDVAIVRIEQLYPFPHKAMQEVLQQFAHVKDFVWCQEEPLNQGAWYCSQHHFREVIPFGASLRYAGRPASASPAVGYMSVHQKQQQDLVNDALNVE

Compound | % Inhibition (5:1) (A. viridans PO; [1]) | inhibition at 250 µM (A. viridans PO; [2]) | vs TPP: affinity of the compound relative to that of TPP (= [TPP]/IC50) (A. viridans PO; [TPP] = 60 µM) | IC50 (A. viridans PO; [3]) | Ki (A. viridans PO; [4]) | % Inhibition (5:1) (E. coli OGDH E1; [1]) | inhibition at 250 µM (E. coli OGDH E1; [2]) | vs TPP: affinity of the compound relative to that of TPP (= [TPP]/IC50) (E. coli OGDH E1; [TPP] = 60 µM) | IC50 (E. coli OGDH E1; [3]) | Ki (E. coli OGDH E1; [5]) | Ki (A. viridans PO; [6]) | IC50 (A. viridans PO; [7]) | Ki (E. coli OGDH E1; [8]) | IC50 (E. coli OGDH E1; [7])
COC(=O)C(CCc1cn(Cc2cnc(C)nc2N)nn1)C(=O)OC [13a] | 62 ± 4% | 26 ± 4% | 0.32 | 189 ± 44 µM | 16 µM | 40 ± 3% | < 20% | 0.15 | 394 ± 65 µM | 20 µM | – | – | – | –
COC(=O)C(CCCc1cn(Cc2cnc(C)nc2N)nn1)C(=O)OC [13b] | 65 ± 5% | 29 ± 4% | 0.39 | 152 ± 24 µM | 13 µM | 54 ± 3% | 23 ± 4% | 0.24 | 251 ± 37 µM | 13 µM | – | – | – | –
Cc1ncc(Cn2cc(CCC(C(=O)[O-])C(=O)[O-])nn2)c(N)n1.[K+].[K+] [14a] | 76 ± 3% | 41 ± 3% | 0.69 | – | – | 76 ± 5% | 36 ± 4% | 0.57 | – | – | 7.3 µM | 87 ± 11 µM | 5.3 µM | 105 ± 11 µM
Cc1ncc(Cn2cc(CCCC(C(=O)[O-])C(=O)[O-])nn2)c(N)n1.[K+].[K+] [14b] | 85 ± 4% | 55 ± 4% | 1.22 | – | – | 83 ± 4% | 47 ± 3% | 0.90 | – | – | 4.1 µM | 49 ± 7 µM | 3.4 µM | 67 ± 9 µM
COC(=O)CCCc1cn(Cc2cnc(C)nc2N)nn1 [15a] | 52 ± 3% | 21 ± 4% | 0.22 | 274 ± 52 µM | 23 µM | 38 ± 3% | < 20% | 0.15 | 407 ± 73 µM | 20 µM | – | – | – | –
COC(=O)CCCCc1cn(Cc2cnc(C)nc2N)nn1 [15b] | 59 ± 3% | 24 ± 4% | 0.28 | 214 ± 31 µM | 18 µM | 42 ± 4% | < 20% | 0.17 | 353 ± 29 µM | 18 µM | – | – | – | –
Cc1ncc(Cn2cc(CCCC(=O)[O-])nn2)c(N)n1.[K+] [16a] | 59 ± 3% | 22 ± 5% | 0.30 | – | – | 49 ± 3% | < 20% | 0.19 | – | – | 17 µM | 202 ± 34 µM | 16 µM | 316 ± 57 µM
Cc1ncc(Cn2cc(CCCCC(=O)[O-])nn2)c(N)n1.[K+] [16b] | 63 ± 3% | 28 ± 4% | 0.35 | – | – | 54 ± 4% | 22 ± 5% | 0.22 | – | – | 14 µM | 171 ± 29 µM | 14 µM | 273 ± 44 µM
